Data on 3 molecules can be found in publication PMC10698726 (Molecular Pharmaceutics, 2023).

One series has as its target T1, OCT1 (Homo sapiens, UniProt O15245).
T1 sequence (O15245 1-554): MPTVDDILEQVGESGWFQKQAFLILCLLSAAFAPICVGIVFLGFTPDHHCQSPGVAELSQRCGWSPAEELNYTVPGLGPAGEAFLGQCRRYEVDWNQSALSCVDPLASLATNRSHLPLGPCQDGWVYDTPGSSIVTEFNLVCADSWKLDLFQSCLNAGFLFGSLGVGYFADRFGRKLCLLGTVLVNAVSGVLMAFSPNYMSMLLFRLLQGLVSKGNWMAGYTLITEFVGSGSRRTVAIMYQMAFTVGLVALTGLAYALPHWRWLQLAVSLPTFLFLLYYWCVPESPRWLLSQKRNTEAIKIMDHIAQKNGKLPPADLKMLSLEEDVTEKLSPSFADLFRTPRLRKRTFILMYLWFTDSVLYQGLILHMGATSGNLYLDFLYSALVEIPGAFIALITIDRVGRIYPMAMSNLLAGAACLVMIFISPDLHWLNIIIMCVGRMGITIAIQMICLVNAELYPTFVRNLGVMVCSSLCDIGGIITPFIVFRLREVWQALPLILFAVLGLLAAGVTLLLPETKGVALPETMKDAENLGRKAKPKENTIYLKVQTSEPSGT
Put plainly: Inhibition of model substrate uptake in OCT1-overexpressing HEK293 cells. The conditions noted are these: for IC50: 2 μM ASP+ or ethambutol as model substrate; for IC50 / inhibition at 5 min, 20 μM: 5 min; for inhibition at 5 min, 20 μM / selectivity ratio at 5 min: human, OCT1-overexpressing HEK293 cells; for inhibition at 5 min, 20 μM: OCT1, 20 μM inhibitor; for selectivity ratio at 5 min: pH 7.4, ratio of the IC50 values of both isomers, label = isomer named in the cell (as a rule the one with the higher IC50), read-out: Stereoselectivity (x-fold for the named isomer). The format is cell-based. Set-up: expressed in transfected cells; host or cells: HEK293. As for the experimental part: Koepsell and Gorbulev (University of Würzburg, Germany).
Fluorescence quantification was performed in technical duplicates.

For the next series, the target named is T2, OCT3 (Homo sapiens, UniProt O75751).
T2 construct: expressed in transfected cells; host or cells: HEK293
T2 sequence (O75751 1-556): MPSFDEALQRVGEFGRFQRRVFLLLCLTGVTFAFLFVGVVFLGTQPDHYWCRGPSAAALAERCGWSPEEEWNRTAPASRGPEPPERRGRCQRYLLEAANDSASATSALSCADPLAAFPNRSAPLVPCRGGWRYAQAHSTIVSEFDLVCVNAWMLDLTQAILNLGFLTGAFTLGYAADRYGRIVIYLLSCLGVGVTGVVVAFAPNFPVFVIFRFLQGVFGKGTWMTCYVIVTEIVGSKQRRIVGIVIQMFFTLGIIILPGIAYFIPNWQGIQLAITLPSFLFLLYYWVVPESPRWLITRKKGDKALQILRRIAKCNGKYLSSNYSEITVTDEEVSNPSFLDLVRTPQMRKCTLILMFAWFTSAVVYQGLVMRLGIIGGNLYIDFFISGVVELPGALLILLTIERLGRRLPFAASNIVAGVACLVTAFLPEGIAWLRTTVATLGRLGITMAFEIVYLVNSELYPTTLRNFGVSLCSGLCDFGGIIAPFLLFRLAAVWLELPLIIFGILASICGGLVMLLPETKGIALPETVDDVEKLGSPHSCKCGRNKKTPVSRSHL
The series is described as follows: Inhibition of model substrate uptake in OCT3-overexpressing HEK293 cells. The series is classed as cell-based. The conditions noted are these: for IC50: 2 μM ASP+ or ethambutol as model substrate. An outline of the steps: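 IC50 values were fitted with a Hill equation from net uptake, calculated as uptake in overexpressing HEK293 cells minus empty-vector control uptake. Cells were exposed for 5 min to 2 μM model substrate alone, with 20 μM inhibitor, or with a concentration series. Uptake was quantified by ASP^+ fluorescence or LC–MS/MS after lysis in 80% acetonitrile.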

Setting [1] is: pH 7.4, probe (S,S)-ethambutol (2 μM), (S,S)-Ethambutol inhibition [%], 2 μM (S,S)-ethambutol.
[2] abbreviates: pH 7.4, probe ASP+ (2 μM), 2 μM ASP+, mean of three experiments, read-out: ASP+ inhibition [%].
[3] abbreviates: pH 7.4, probe sumatriptan (2 μM), 2 μM sumatriptan, read-out: Sumatriptan inhibition [%].
[4] abbreviates: HEK293, 5 min, read-out: (S,S)-Ethambutol inhibition [%], OCT3, 20 μM inhibitor, 2 μM (S,S)-ethambutol, 5 min.
Setting [5] is: HEK293, OCT3, 20 μM inhibitor, 2 μM ASP+, 5 min, read-out: ASP+ inhibition [%].

Where two headings read alike, the source gives them in different places.

The IC50 is the point on the concentration scale where inhibition reaches its midpoint. In general, inhibition refers to the percentage by which the read-out fell short of the control. Consider `CCN(CC)CC#CCOC(=O)[C@](O)(c1ccccc1)C1CCCCC1` [(R)-Oxybutynine], for which the IC50 was determined as 171 µM against OCT1 (IC50, OCT1, Table S5) and 65 µM on OCT3 (IC50, OCT3, Table S5, 5 min). For the same molecule, the inhibition at 5 min, 20 μM on OCT1 (setting [1]) was 93.7%; at OCT1 (setting [2]), 49.1%; at OCT1 (setting [3]) it was 73%. For the same molecule, the selectivity ratio at 5 min on OCT1 (OCT1, Table S5) was 1.2. Further, the inhibition at 20 µM at OCT3 (setting [4]) was determined as 64.7%; at OCT3 (setting [5]), 31.3%. For the same molecule, the “Stereoselectivity (x-fold for the named isomer)” value on OCT3 (OCT3, Table S5, ratio of the IC50 values of both isomers, label = isomer named in the cell (as a rule the one with the higher IC50)) is 1.6 fold. For the same molecule, at OCT3 (OCT3, 20 μM inhibitor, 2 μM (S)-zolmitriptan, 5 min), the “(S)-Zolmitriptan inhibition [%]” value is 42.2%.

`CCCN[C@H]1CCc2nc(N)sc2C1` [(S)-Pramipexole]: the IC50 at OCT1 (OCT1, Table S5, read-out: IC50) is 32.2 µM. For the same molecule, the inhibition at 5 min, 20 μM on OCT1 (setting [1]) was 34.9%; at OCT1 (setting [2]), 12.1%; on OCT1 (setting [3]), 35.6%. For the same molecule, the selectivity ratio at 5 min at OCT1 (OCT1, Table S5) is 1.6. Also, the inhibition at 20 µM at OCT3 (HEK293, 5 min, read-out: (S)-Zolmitriptan inhibition [%], OCT3, 20 μM inhibitor, 2 μM (S)-zolmitriptan, 5 min) was 18.4%; on OCT3 (setting [4]), 30.2%; at OCT3 (setting [5]), 6.1%.

Turning to `CN(C)CCc1c[nH]c2ccc(C[C@H]3COC(=O)N3)cc12` [(S)-Zolmitriptan], the inhibition at 5 min, 20 μM was determined as 26.9% against OCT1 (setting [1]), 10% on OCT1 (setting [2]) and 44.5% on OCT1 (setting [3]). Besides, the inhibition at 20 µM at OCT3 (setting [4]) amounted to 55%; at OCT3 (setting [5]), 38.5%. Moreover, on OCT3 (OCT3, Table S5, 5 min, read-out: IC50), the IC50 stood at 17.3 µM. Moreover, the “fold more potent in the inhibition of OCT3 than the respective counterpart” value on OCT3 (OCT3, label = the more potent enantiomer) was found to be 25 fold.
